Values of other authors, collected in patent US20170326166A1, “COMPOSITIONS AND METHODS FOR TREATING PITUITARY TUMORS” (University of Virginia Patent Foundation, priority 2014, published 2017).

Experiments:
cancer cells [1] = conditions: cancer cells compared to their normal counterpart cells or other normal cells
cancer cells [2] = conditions: in cancer cells; trapped in the cytosol

Compound	accumulation in cells (cancer cells [1])	intracellular half-life (cancer cells [2])
O=CC[C@@H](O)[C@H](O)[C@H](O)CO [2DG, 2-Deoxy-D-glucose]	accumulates predominantly in cancer cells	
O=CC[C@@H](O)[C@H](O)[C@H](O)COP(=O)(O)O [2-deoxyglucose 6-phosphate]		approximately 50 minutes
